From ChEMBL document CHEMBL1201862, “PubChem BioAssay data set” (2004)
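The compound was tested at five concentrations on cells cultured in 96-well plates, with a 48-hour exposure period. At the GI50, growth is halved.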 Active and inactive are the calls of the source. Cut-off read from the data, not from the text of the source: active = GI50 up to about 1.1 µM and inactive = higher. *1 amine or outer side, *2 acyl side, *3 side chain or, on linkers, in order; H or OH if unused. Where a SMILES comes first, the peptide text is derived from it. Bridges are numbered along the chain shown (N, C = ends). [ ]: non-standard residue; d: D form. X36 = CC[C@H](C)[C@@H](N[*:1])[C@@H](O)CC(=O)O[C@H](C(=O)[C@H](C)C(=O)[*:2])C(C)C; NMeY = CN[C@@H](Cc1ccc(O)cc1)C(=O)O

What was measured:
Assay in all cases: inhibition of tumour cell growth, NCI panel, 48 h
BT-549 = system: BT-549
DLD-1 = system: DLD-1
DMS-273 = system: DMS-273
HOP-18 = system: HOP-18
M19-MEL = system: M19-MEL
SNB-78 = system: SNB-78
XF498 = system: XF498
LXFL 529 = system: LXFL 529
RXF 631 = system: RXF 631

Row | Structure (SMILES) | GI50 (BT-549) | GI50 (DLD-1) | GI50 (DMS-273) | GI50 (M19-MEL) | GI50 (SNB-78) | GI50 (XF498) | GI50 (LXFL 529) | other results
1 | CCCC(=O)Nc1cc(/C=C/C(=O)N2CC(CCl)c3c2cc(O)c2[nH]cc(C)c32)n(C)c1 (stereo not given) | < 2.5e-05 µM (active) | – | – | – | – | – | – | –
2 | COC(=O)C(C(=O)C(=O)Nc1ccc([N+](=O)[O-])cc1[N+](=O)[O-])c1nc2ccc(Cl)cc2nc1O (stereo not given) | – | > 100 µM (inactive) | > 100 µM (inactive) | > 100 µM (inactive) | > 100 µM (inactive) | > 100 µM (inactive) | – | GI50 (HOP-18): 59.3 µM (inactive)
3 | CCN(CC)CCCNc1c2cc(OC)ccc2nc2cccc([N+](=O)[O-])c12 | 0.2 µM (active) | – | – | – | – | – | – | –
4 | CC(=O)C1COC(O)C1C (stereo not given) | 30 µM (inactive) | – | – | – | – | – | – | –
5 | Oc1cc(O)c2c(c1)OC(c1ccc(O)c(O)c1)C(OC1(c3cc(O)c(O)c(O)c3)Oc3cc(O)cc(O)c3C(O)C1O)C2 (stereo not given) | 26.8 µM (inactive) | – | – | – | – | – | – | –
6 | [O-][S+]1c2ccccc2N=C(c2cccs2)CC1c1ccccc1O (stereo not given) | – | 60.8 µM (inactive) | – | > 100 µM (inactive) | – | 32.1 µM (inactive) | > 100 µM (inactive) | GI50 (RXF 631): > 100 µM (inactive)
7 | CCOC(=O)C12C(C(=O)OC)=C(C)N(NC(=O)Nc3ccccc3)C1(N)N(NC(=O)Nc1ccccc1)C(C)=C2C(=O)OC (stereo not given) | – | 41.5 µM (inactive) | 27.7 µM (inactive) | 18 µM (inactive) | 47.4 µM (inactive) | 24.3 µM (inactive) | 26.1 µM (inactive) | GI50 (HOP-18): 32.9 µM (inactive)
8 | Oc1c(Br)cc(/C=C/c2cccc(/C=C/c3cc(Br)c(O)c(Br)c3)n2)cc1Br | 26.1 µM (inactive) | – | – | – | – | – | – | –
9 | O=C(NCC(O)CNC(=O)C(F)(F)F)C(F)(F)F | – | > 100 µM (inactive) | > 100 µM (inactive) | > 100 µM (inactive) | > 100 µM (inactive) | > 100 µM (inactive) | > 100 µM (inactive) | GI50 (HOP-18): > 100 µM (inactive)
10 | CC(=O)O[C@H]1CCC2[C@@H]3CCC4Nc5oncc5C[C@]4(C)C3CC[C@@]21C (stereo not given in full) | > 10 µM (inactive) | – | – | – | – | – | – | –
11 | CC1CCC(C(=O)O)(C(Br)C(=O)O)CC1 (stereo not given) | > 100 µM (inactive) | – | – | – | – | – | – | –
12 | Cc1ccc(-c2cc(=O)c3cc(C)c(C)c(C(=O)O)c3o2)cc1[N+](=O)[O-] | – | > 100 µM (inactive) | > 100 µM (inactive) | > 100 µM (inactive) | > 100 µM (inactive) | – | > 100 µM (inactive) | GI50 (HOP-18): > 100 µM (inactive)
13 | CC/C(Cl)=N\OC(=O)Nc1ccc(F)c(Cl)c1 | 16.6 µM (inactive) | – | – | – | – | – | – | –
14 | CC[C@H](C)[C@H]1NC(=O)[C@@H](N)[C@@H](C)OC(=O)[C@H](Cc2ccc(OC)cc2)N(C)C(=O)[C@@H]2CCCN2C(=O)[C@H](CC(C)C)NC(=O)[C@@H](C)C(=O)[C@H](C(C)C)OC(=O)C[C@@H]1O (H-T[X36]LP[NMeY](Me); ester 1-C) | 20.2 µM (inactive) | – | – | – | – | – | – | –
15 | Cc1ccc(/C=C2\CN(C)CC3C2=NN(c2ccccc2)C3c2ccc(C)cc2)cc1 (stereo not given) | > 100 µM (inactive) | – | – | – | – | – | – | –
16 | C#CC(=O)OCC#CCOC(=O)C#C | 18.6 µM (inactive) | – | – | – | – | – | – | –
17 | O=C(CCN1CCCC1)CC(c1ccccc1)c1c(O)c2ccccc2oc1=O (stereo not given) | – | > 100 µM (inactive) | > 100 µM (inactive) | > 100 µM (inactive) | > 100 µM (inactive) | > 100 µM (inactive) | > 100 µM (inactive) | –
18 | CC(=O)c1sc(-c2nc(C)c(C(=O)/C=C\c3ccc(/C=C\C(=O)c4sc(-c5nc(C)c(C(C)=O)s5)nc4C)cc3)s2)nc1C | – | > 100 µM (inactive) | > 100 µM (inactive) | > 100 µM (inactive) | > 100 µM (inactive) | > 100 µM (inactive) | > 100 µM (inactive) | GI50 (HOP-18): > 100 µM (inactive)
19 | CSc1nc(SC)c2ncn(C3CC(Oc4ccc(C)cc4)C(COc4ccc(C)cc4)O3)c2n1 (stereo not given) | > 100 µM (inactive) | – | – | – | – | – | – | –
20 | CC1(C)COC(c2cccc(C3=NC(C)(C)CO3)c2)=N1 | > 100 µM (inactive) | – | – | – | – | – | – | –
21 | CCOC(=O)C1=NN(c2ccc(C)cc2)C2(c3ccccc3)C=C(c3ccccc3)N(C)CCN12 (stereo not given) | > 100 µM (inactive) | – | – | – | – | – | – | –
22 | CCCCOCOc1ccccc1P1(=O)COc2ccccc2OC1 | 41.5 µM (inactive) | – | – | – | – | – | – | –
23 | O=C(O)CN1C(=O)c2ccc(NC(=O)C(=O)O)cc2S1(=O)=O | > 100 µM (inactive) | – | – | – | – | – | – | –
24 | COC(=O)C1(C)CCc2c(OC)ccc(OC)c2C1=O (stereo not given) | – | > 100 µM (inactive) | > 100 µM (inactive) | > 100 µM (inactive) | > 100 µM (inactive) | > 100 µM (inactive) | > 100 µM (inactive) | GI50 (RXF 631): > 100 µM (inactive)
25 | O=C1OC(c2ccccc2)=N/C1=C\c1cccc2ccccc12 | – | > 100 µM (inactive) | > 100 µM (inactive) | > 100 µM (inactive) | > 100 µM (inactive) | > 100 µM (inactive) | > 100 µM (inactive) | GI50 (HOP-18): > 100 µM (inactive)
26 | CC(=O)OCC1OC(SC2=N/C(=C\c3cc4c(=O)c5ccccc5sc4s3)C(=O)N2c2ccccc2)C(OC(C)=O)C(OC(C)=O)C1OC(C)=O (stereo not given) | 63.8 µM (inactive) | – | – | – | – | – | – | –
